Results taken from ChEMBL document CHEMBL3259558, “Identification of amides derived from 1H-pyrazolo[3,4-b]pyridine-5-carboxylic acid as potent inhibitors of human nicotinamide phosphoribosyltransferase (NAMPT)” (Bioorg Med Chem Lett, 2013).
Converted amounts (≈) assume the structure as drawn. The source made the active and inactive calls. The rule behind the calls is not given here.

Key:
A2780 [1] = experiment: Antiproliferative activity against human A2780 cells assessed as cell viability after 72 hrs by SRB assay in presence of nitotinamide mononucleotide; format: functional, cell-based
A2780 [2] = experiment: Antiproliferative activity against human A2780 cells assessed as cell viability after 72 hrs by SRB assay; format: functional, cell-based; conditions: A2780, 72 h
[3] = biological target: Nicotinamide phosphoribosyltransferase (Homo sapiens, UniProt P43490); experiment: Inhibition of C-terminal His-6-tagged full length human NAMPT expressed in Escherichia coli (DE3) cells after 30 mins by mass spectrometry-based analysis
[4] = Aqueous solubility of the compound in PBS at pH 7.2 by LC/CLND analysis; format: physicochemical
[5] = Apparent permeability from apical to basolateral side in MDCK cells at 10 uM by LC-MS/MS analysis; format: ADME, cell-based, Canis lupus familiaris; conditions: dog
[6] = Fraction unbound in mouse plasma at 5 uM by LC-MS/MS analysis; format: ADME, cell-free
PC-3 [7] = experiment: Cellular uptake in human PC3 cells at 1000 nM; format: ADME, cell-based; conditions: pc-3, 1 µM
[8] = Cytotoxicity against rhesus monkey RF/6A cells assessed as cell viability after 96 hrs by CyQuant staining-based assay; conditions: Macaca mulatta
[9] = Antiproliferative activity against dog DH82 cells assessed as cell viability after 96 hrs by CyQuant staining-based assay; format: functional; conditions: Canis lupus familiaris, DH82, 96 h
[10] = Ratio of drug level in retina to plasma of Sprague-Dawley rat at 30 mg/kg, po qd for 2 days measured 6.5 hrs after last dose in presence of nicotinic acid
[11] = biological target: T1, Nicotinamide phosphoribosyltransferase (Mus musculus, UniProt Q99KQ4); experiment: Inhibition of NAMPT in mouse cells assessed as reduction in NAD level after 48 hrs by mass spectrometry; format: cell-based
[12] = Octanol-PBS buffer distribution coefficient, log D of the compound at pH 7.4 by shake flask method; format: physicochemical
PC-3 [13] = experiment: Cellular uptake in human PC3 cells at 200 nM; format: ADME, cell-based; conditions: pc-3, 0.2 µM
[14] = Antiproliferative activity against mouse B16F10 cells assessed as cell viability after 96 hrs by CyQuant staining-based assay; format: functional; conditions: B16-F10, 96 h
[15] = Ratio of drug level in retina to plasma of Sprague-Dawley rat at 30 mg/kg, po qd for 2 days measured 1 hr after last dose in presence of nicotinic acid
[16] = Antiproliferative activity against human HT1080 cells assessed as cell viability after 96 hrs by CyQuant staining-based assay; format: functional; conditions: HT-1080, 96 h
[17] = Antiproliferative activity against mouse KPP cells assessed as cell viability after 96 hrs by CyQuant staining-based assay; format: functional
[18] = Antiproliferative activity against dog D17 cells assessed as cell viability after 96 hrs by CyQuant staining-based assay; format: functional; conditions: Canis lupus familiaris, D17, 96 h
[19] = Dissociation constant, pKa of the compound; format: physicochemical
[20] = biological target: T1, Nicotinamide phosphoribosyltransferase; experiment: Inhibition of mouse NAMPT after 30 mins by mass spectrometry-based analysis
[21] = Drug uptake in Sprague-Dawley rat retina at 30 mg/kg, po qd for 2 days measured 1 hr after last dose in presence of nicotinic acid; format: ADME, organism-based; design: dose 30 mg/kg, route oral; conditions: read-out: Drug uptake
[22] = biological target: Nicotinamide phosphoribosyltransferase (Rattus norvegicus, UniProt Q80Z29); experiment: Inhibition of rat NAMPT after 30 mins by mass spectrometry-based analysis
[23] = Antiproliferative activity against human MIAPaCa2 cells assessed as cell viability after 96 hrs by CyQuant staining-based assay; format: functional; conditions: MIA PaCa-2, 96 h
[24] = Cellular uptake in mouse KPP cells at 1000 nM; format: ADME, cell-based; conditions: 1 µM
[25] = Inhibition of C-terminal His-6-tagged dog NAMPT expressed in Escherichia coli (DE3)-RIL cells after 30 mins by mass spectrometry-based analysis; design: species or system Canis lupus familiaris
PC-3 [26] = experiment: Antiproliferative activity against human PC3 cells assessed as cell viability after 96 hrs by CyQuant staining-based assay; format: functional; conditions: PC-3, 96 h
[27] = Drug uptake in Sprague-Dawley rat retina at 30 mg/kg, po qd for 2 days measured 6.5 hrs after last dose in presence of nicotinic acid; format: ADME, organism-based; design: dose 30 mg/kg, route oral; conditions: read-out: Drug uptake
[28] = Inhibition of C-terminal His-6-tagged cynomolgus monkey NAMPT expressed in Escherichia coli (DE3)-RIL cells after 30 mins by mass spectrometry-based analysis; design: species or system Macaca fascicularis
[29] = Cellular uptake in mouse KPP cells at 200 nM; format: ADME, cell-based; conditions: 0.2 µM
[30] = Antiproliferative activity against mouse KPR cells assessed as cell viability after 96 hrs by CyQuant staining-based assay; format: functional
[31] = Cytotoxicity against African green monkey COS7 cells assessed as cell viability after 96 hrs by CyQuant staining-based assay; conditions: Chlorocebus aethiops, COS-7, 96 h
[32] = Antiproliferative activity against dog A72 cells assessed as cell viability after 96 hrs by CyQuant staining-based assay; format: functional; conditions: Canis lupus familiaris, A-72, 96 h

Chain of Nicotinamide phosphoribosyltransferase (Homo sapiens, UniProt P43490) (P43490 whole entry): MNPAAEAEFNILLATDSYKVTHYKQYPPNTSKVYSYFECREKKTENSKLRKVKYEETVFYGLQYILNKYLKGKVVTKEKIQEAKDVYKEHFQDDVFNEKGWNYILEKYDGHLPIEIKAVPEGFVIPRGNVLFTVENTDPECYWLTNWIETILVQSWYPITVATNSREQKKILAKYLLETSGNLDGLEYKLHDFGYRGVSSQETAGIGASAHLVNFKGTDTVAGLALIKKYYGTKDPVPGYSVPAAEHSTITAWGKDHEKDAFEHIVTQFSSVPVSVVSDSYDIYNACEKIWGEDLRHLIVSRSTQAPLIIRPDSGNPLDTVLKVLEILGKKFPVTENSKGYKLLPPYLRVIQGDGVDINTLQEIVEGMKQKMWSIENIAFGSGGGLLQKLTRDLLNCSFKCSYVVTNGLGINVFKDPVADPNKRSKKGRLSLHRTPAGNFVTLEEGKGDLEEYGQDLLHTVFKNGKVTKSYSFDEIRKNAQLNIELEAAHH
T1 sequence (Q99KQ4 whole entry): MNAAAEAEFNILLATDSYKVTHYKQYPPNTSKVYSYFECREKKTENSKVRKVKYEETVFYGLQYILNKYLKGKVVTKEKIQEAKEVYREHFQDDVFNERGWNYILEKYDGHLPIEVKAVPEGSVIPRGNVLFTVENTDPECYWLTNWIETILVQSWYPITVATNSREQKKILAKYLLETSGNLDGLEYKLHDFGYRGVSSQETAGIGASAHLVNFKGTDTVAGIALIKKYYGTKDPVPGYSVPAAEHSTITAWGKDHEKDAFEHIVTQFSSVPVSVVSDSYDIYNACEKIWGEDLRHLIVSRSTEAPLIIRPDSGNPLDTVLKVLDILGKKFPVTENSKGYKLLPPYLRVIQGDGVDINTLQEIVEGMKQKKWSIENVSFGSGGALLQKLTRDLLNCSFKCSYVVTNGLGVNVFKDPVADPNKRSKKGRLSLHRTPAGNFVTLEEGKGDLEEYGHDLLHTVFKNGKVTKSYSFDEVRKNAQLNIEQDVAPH
Chain of Nicotinamide phosphoribosyltransferase (Rattus norvegicus, UniProt Q80Z29) (Q80Z29 whole entry): as the sequence (Q99KQ4 whole entry) above, with T335S, N439T, I484M counted along it

SMILES: O=C(NCc1ccc(S(=O)(=O)c2ccccc2)cc1)c1cnc2[nH]ccc2c1
- inhibition (A2780 [1]): inactive
- IC50 (A2780 [2]): > 2000 nM

SMILES: COC1CCN(S(=O)(=O)c2ccc(CNC(=O)c3cnc4[nH]ncc4c3)cc2)CC1
- IC50 [3]: 400 nM
- inhibition (A2780 [1]): inactive
- IC50 (A2780 [2]): 39 nM

SMILES: CN(C)c1ccc(S(=O)(=O)c2ccc(CNC(=O)c3cnc4[nH]ncc4c3)cc2)cn1
- solubility [4]: < 1 µM
- Papp A→B at 10 µM [5]: 1.5 ×10⁻⁶ cm/s
- fraction unbound at 5 µM [6]: 0.018
- IC50 [3]: 12 nM
- inhibition (A2780 [1]): inactive
- IC50 (A2780 [2]): 3.2 nM

SMILES: O=C(NCc1ccc(S(=O)(=O)N2CCCCC2)cc1)c1ccc2nccn2c1
- inhibition (A2780 [1]): inactive

SMILES: O=C(NCc1ccc(S(=O)(=O)c2cnc3ccccc3c2)cc1)c1cnc2[nH]ncc2c1
- solubility [4]: < 1 µM
- Papp A→B at 10 µM [5]: 1.6 ×10⁻⁶ cm/s
- fraction unbound at 5 µM [6]: 0.009
- IC50 [3]: 8.2 nM
- inhibition (A2780 [1]): inactive
- IC50 (A2780 [2]): 2.2 nM

SMILES: O=C(NCc1ccc(S(=O)(=O)c2ccccc2)cc1)c1ccc2nccn2c1
- inhibition (A2780 [1]): inactive

SMILES: O=C(NCc1ccc(S(=O)(=O)N2CCC(O)CC2)cc1)c1cnc2[nH]ncc2c1
- IC50 [3]: 410 nM
- inhibition (A2780 [1]): inactive
- IC50 (A2780 [2]): 210 nM

SMILES: O=C(NCc1ccc(S(=O)(=O)c2ccccc2)cc1)c1ccc2[nH]ncc2n1
- IC50 [3]: 1300 nM
- inhibition (A2780 [1]): inactive
- IC50 (A2780 [2]): > 2000 nM

SMILES: CCCn1cc(S(=O)(=O)c2ccc(CNC(=O)c3cnc4[nH]ncc4c3)cc2)cn1
- solubility [4]: 8.8 µM (≈ 3.74 µg/mL)
- Papp A→B at 10 µM [5]: 1.9 ×10⁻⁶ cm/s
- fraction unbound at 5 µM [6]: 0.071
- IC50 [3]: 10 nM
- inhibition (A2780 [1]): inactive
- IC50 (A2780 [2]): 6.9 nM

SMILES: O=C(NCc1ccc(S(=O)(=O)c2cncc(Cl)c2)cc1)c1cnc2[nH]ncc2c1
- solubility [4]: < 1 µM
- Papp A→B at 10 µM [5]: 2.5 ×10⁻⁶ cm/s
- fraction unbound at 5 µM [6]: 0.074
- IC50 [3]: 11 nM
- inhibition (A2780 [1]): inactive
- IC50 (A2780 [2]): 2.4 nM

SMILES: O=C(NCc1ccc(S(=O)(=O)N2CCOCC2)cc1)c1cnc2[nH]ncc2c1
- IC50 [3]: 370 nM
- inhibition (A2780 [1]): inactive
- IC50 (A2780 [2]): 280 nM

SMILES: O=C(NCc1ccc(S(=O)(=O)c2cncc(C(F)(F)F)c2)cc1)c1cnc2[nH]ncc2c1
- solubility [4]: < 1 µM
- Papp A→B at 10 µM [5]: 4.4 ×10⁻⁶ cm/s
- fraction unbound at 5 µM [6]: 0.05
- IC50 [3]: 10 nM
- inhibition (A2780 [1]): inactive
- IC50 (A2780 [2]): 4.5 nM

SMILES: N#CC1CCN(S(=O)(=O)c2ccc(CNC(=O)c3cnc4[nH]ncc4c3)cc2)CC1
- IC50 [3]: 410 nM
- inhibition (A2780 [1]): inactive
- IC50 (A2780 [2]): > 2000 nM

SMILES: O=C(NCc1ccc(S(=O)(=O)c2cc(F)cc(F)c2)cc1)c1ccc2nccn2c1
- Drug uptake (PC-3 [7]): 30 nM
- IC50 [8]: 4 nM
- IC50 [9]: 7 nM
- Kp at 6.5 h [10]: 0.3
- EC50 [11]: 1.3 nM
- logD [12]: 3.2
- Drug uptake (PC-3 [13]): 9 nM
- IC50 [14]: 71 nM
- Kp at 1 h [15]: 0.32
- IC50 [16]: 2 nM
- IC50 [17]: 16 nM
- IC50 [18]: 12 nM
- pKa [19]: 5.3
- IC50 [20]: 24 nM
- concentration at 1 h [21]: 1900 nM
- IC50 [22]: 23 nM
- IC50 [23]: 7 nM
- Drug uptake [24]: 31 nM
- IC50 [25]: 7 nM
- IC50 (PC-3 [26]): 3 nM
- concentration at 6.5 h [27]: 1300 nM
- IC50 [28]: 42 nM
- Drug uptake [29]: 8 nM
- IC50 [30]: 41 nM
- IC50 [31]: 9 nM
- IC50 [32]: 4 nM

SMILES: O=C(NCc1ccc(S(=O)(=O)N2CC3(CCOCC3)C2)cc1)c1cnc2[nH]ncc2c1
- IC50 [3]: 110 nM
- inhibition (A2780 [1]): inactive
- IC50 (A2780 [2]): 45 nM

SMILES: O=C(NCc1ccc(S(=O)(=O)c2cccc(OC(F)(F)F)c2)cc1)c1cnc2[nH]ncc2c1
- solubility [4]: < 1 µM
- Papp A→B at 10 µM [5]: 4 ×10⁻⁶ cm/s
- fraction unbound at 5 µM [6]: 0.008
- IC50 [3]: 7.7 nM
- inhibition (A2780 [1]): inactive
- IC50 (A2780 [2]): 4.8 nM

SMILES: O=C(NCc1ccc(S(=O)(=O)c2ccccc2)cc1)c1cc2cn[nH]c2cn1
- IC50 [3]: > 2000 nM
- inhibition (A2780 [1]): inactive
- IC50 (A2780 [2]): > 2000 nM

SMILES: O=C(NCc1ccc(S(=O)(=O)c2cc(F)cc(F)c2)cc1)c1cnc2[nH]ncc2c1
- solubility [4]: < 1 µM
- Papp A→B at 10 µM [5]: 7.8 ×10⁻⁶ cm/s
- fraction unbound at 5 µM [6]: 0.114
- inhibition (A2780 [1]): inactive
- IC50 (A2780 [2]): 6 nM

SMILES: O=C(NCc1ccc(S(=O)(=O)N2CCCCC2)cc1)c1ccc2[nH]ncc2c1
- IC50 [3]: > 2000 nM
- inhibition (A2780 [1]): inactive
- IC50 (A2780 [2]): > 2000 nM

SMILES: Cn1ncc2cc(C(=O)NCc3ccc(S(=O)(=O)c4ccccc4)cc3)cnc21
- IC50 [3]: 1700 nM
- inhibition (A2780 [1]): inactive
- IC50 (A2780 [2]): > 2000 nM

SMILES: O=C(NCc1ccc(S(=O)(=O)c2ccc(N3CCOCC3)nc2)cc1)c1cnc2[nH]ncc2c1
- solubility [4]: < 1 µM
- Papp A→B at 10 µM [5]: 0.85 ×10⁻⁶ cm/s
- fraction unbound at 5 µM [6]: 0.019
- IC50 [3]: 4.5 nM
- inhibition (A2780 [1]): inactive
- IC50 (A2780 [2]): 1.3 nM

SMILES: CCn1cc(S(=O)(=O)c2ccc(CNC(=O)c3cnc4[nH]ncc4c3)cc2)cn1
- IC50 [3]: 190 nM
- inhibition (A2780 [1]): inactive
- IC50 (A2780 [2]): 31 nM

SMILES: NC1CCN(S(=O)(=O)c2ccc(CNC(=O)c3cnc4[nH]ncc4c3)cc2)CC1
- IC50 [3]: 390 nM
- inhibition (A2780 [1]): inactive
- IC50 (A2780 [2]): 330 nM

SMILES: O=C(NCc1ccc(S(=O)(=O)c2ccccc2)cc1)c1cnc2[nH]ncc2c1
- IC50 [3]: 54 nM
- inhibition (A2780 [1]): inactive
- IC50 (A2780 [2]): 66 nM

SMILES: O=C(NCc1ccc(S(=O)(=O)N2CCCCC2)cc1)c1cnc2[nH]ncc2c1
- IC50 [3]: 100 nM
- inhibition (A2780 [1]): inactive
- IC50 (A2780 [2]): 88 nM

SMILES: CC(C)n1cc(S(=O)(=O)c2ccc(CNC(=O)c3cnc4[nH]ncc4c3)cc2)cn1
- IC50 [3]: 99 nM
- inhibition (A2780 [1]): inactive
- IC50 (A2780 [2]): 12 nM

SMILES: O=C(NCc1ccc(S(=O)(=O)N2CCC(N3CCCC3)CC2)cc1)c1cnc2[nH]ncc2c1
- inhibition (A2780 [1]): inactive
- IC50 (A2780 [2]): 35 nM

SMILES: O=C(NCc1ccc(S(=O)(=O)N2CCN(C3COC3)CC2)cc1)c1cnc2[nH]ncc2c1
- IC50 [3]: 440 nM
- inhibition (A2780 [1]): inactive
- IC50 (A2780 [2]): 45 nM
